The subject of data set [1] is Lectin Pathway Activation (LPA) in human serum. In words: Lectin pathway activation (LPA) assay in human serum, C4 deposition on mannan-coated plate. Type of data set: biochemical. As to conditions: 1% pooled human serum, 55 minutes, room temperature. Here is the method:
A Microtiter ELISA plate (Nunc-Maxi Sorp; Sigma-Aldrich®, USA) was coated with mannan sourced from Saccharomyces cerevisiae (Sigma-Aldrich®, USA) in a coating buffer comprising 33.3 mM Na2CO3 and 166.67 mM NaHCO3. The plates were incubated at room temperature overnight. Subsequently, the plates were blocked with a 5% bovine serum albumin solution (Sigma-Aldrich®, USA) prepared in PBST for 2 hours at room temperature with agitation. Varying concentrations of MASP-2 inhibitors were dispensed onto the empty plate.
To perform the assay, pooled human serum was diluted to 1% in a solution of 20 mM HEPES (pH=7.4), 140 mM NaCl, and 1 mM MgCl2. Then, 40 μl of the diluted human serum was dispensed into each well of the Microtiter ELISA plate and incubated for 55 minutes at room temperature. The C4 deposition on the mannan-coated surface was stopped using an EDTA stop solution (20 mM HEPES, pH=7.4, 140 mM NaCl, and 150 mM EDTA). Subsequently, rabbit anti-Human C4c antibody (Agilent Technologies, USA) prepared in PBST was added, and the plates were incubated at room temperature for 30 minutes with agitation, then washed with PBST, and Goat anti-rabbit IgG(H+L) HRP-conjugated (Southern Biotech®, USA) was added. The plates were again incubated at room temperature for 30 minutes with agitation, and then were washed with PBST. Following this, the Amplex® UltraRed® (Thermo Fischer Sci, USA) substrate solution was added for 16 minutes, followed by the addition of the Amplex® UltraRed® stop solution. The plates' fluorescence was measured using an i3× microplate reader (Molecular Devices, USA) with excitation at 550 nm and emission at 580 nm. The raw data generated from the plate reader was exported to GraphPad Prism® (version 10.0.3), and the non-linear regression curve was generated using the 4-parameter logistic fit equation. All data are reported as pIC50 with a 95% confidence interval.

Another data set concerns the target T1, MASP-2 (CCP1-CCP2-SP) (Homo sapiens, UniProt O00187).
T1 construct: 15 μL of Enzyme MASP-2 (CCP1-CCP2-SP) in Assay Buffer
In words: Enzymatic assay for MASP-2 inhibitory activity (fluorogenic substrate). Type of data set: biochemical. As to conditions: room temperature, 20 mM Hepes pH 7.4, 20 min. The method, boiled down: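 Human MASP-2 CCP1-CCP2-SP construct with a C2-cleavage-site fluorogenic substrate in 20 mM HEPES pH 7.4, 140 mM NaCl, 0.1% Tween 20, 20 min at room temperature before acetic acid stop. Activity normalised to DMSO and no-enzyme controls; IC50 taken as equivalent to Ki under linear conditions.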

The target of another data set is T2, human a-thrombin (Homo sapiens, UniProt P00734).
T2 construct: enzyme (human a-thrombin (BioPharm® Lab.)); purchased BioPharm Lab
In words: Enzymatic assay for thrombin (fluorogenic peptide substrate Boc-VPR-AMC). Type of data set: biochemical. The note with it: room temperature, 20 mM Hepes pH 7.4, 20 min. The method, boiled down: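 Human α-thrombin was incubated with serially diluted compound and fluorogenic substrate Boc-VPR-AMC in 20 mM Hepes pH 7.4, 140 mM NaCl, 0.1% Tween 20 at room temperature. The reaction was stopped after 20 min with 0.1 M acetic acid and fluorescence read. % activity was normalized to DMSO and no-enzyme controls, and IC50 was taken as equivalent to Ki.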

For data set [2], the system named is microvascular endothelial cell injury. The note with it: tissue culture model; cited from earlier work.
A further data set has as its system HSCT-TMA. As to conditions: once-weekly treatment, HSCT-TMA patients; cited from earlier work.
The next data set deals with severe IgA nephropathy. The note with it: cited from earlier work.

Structures can show the parent of a compound that is named as a salt.

T1 sequence (O00187 287-686 limits assumed): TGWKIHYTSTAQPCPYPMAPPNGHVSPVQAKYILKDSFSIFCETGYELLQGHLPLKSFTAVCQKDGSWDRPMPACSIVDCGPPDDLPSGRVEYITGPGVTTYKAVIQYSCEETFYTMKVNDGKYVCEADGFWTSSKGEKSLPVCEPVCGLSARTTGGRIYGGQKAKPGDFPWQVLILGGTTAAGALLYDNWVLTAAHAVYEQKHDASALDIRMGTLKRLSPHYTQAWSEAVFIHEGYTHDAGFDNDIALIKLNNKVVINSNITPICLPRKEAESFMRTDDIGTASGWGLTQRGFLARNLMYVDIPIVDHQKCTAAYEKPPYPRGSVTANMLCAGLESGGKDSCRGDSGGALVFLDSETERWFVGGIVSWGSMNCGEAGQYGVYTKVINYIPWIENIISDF

Consider `Cc1cc(C)cc(CNc2cnc3n(c2=O)[C@H](C(=O)NCc2cnc4[nH]cc(Cl)c4c2)CC3)c1` [Compound 18, (S)—N-((3-chloro-1H-pyrrolo[2,3-b]pyridin-5-yl)methyl)-3-((3,5-dimethylbenzyl)amino)-4-oxo-4,6,7,8-tetrahydropyrrolo[1,2-a]pyrimidine-6-carboxamide, trifluoracetate], for which, in data set [1], the 50% inhibitory concentration (IC50) (commonly the concentration that inhibits the measured activity by half) is less than 500 nM. Also, the values for the Ki on MASP-2 (CCP1-CCP2-SP) and on human a-thrombin were less than 500 nM and 2500 to 10000 nM, respectively.

In data set [1], `Cc1cc(C)cc(CNc2cnc3n(c2=O)[C@H](C(=O)N[C@@H]2CCc4nc(N)ccc42)CC3)c1` [Compound 81, (S)—N—((R)-2-amino-6,7-dihydro-5H-cyclopenta[b]pyridin-5-yl)-3-((3,5-dimethylbenzyl)amino)-4-oxo-4,6,7,8-tetrahydropyrrolo[1,2-a]pyrimidine-6-carboxamide] gave an IC50 of less than 500 nM. Besides, the Ki (usually a dissociation constant, usually derived from enzyme kinetics or from competition with a known ligand) at MASP-2 (CCP1-CCP2-SP) is less than 500 nM; at human a-thrombin it was 500 to 2500 nM.

Regarding `Cc1cc(C)cc(CNc2cnc3n(c2=O)[C@H](C(=O)NCc2cnc4c(c2)CNC4)CC3)c1` [Compound 22, (S)—N-((6,7-dihydro-5H-pyrrolo[3,4-b]pyridin-3-yl)methyl)-3-((3,5-dimethylbenzyl)amino)-4-oxo-4,6,7,8-tetrahydropyrrolo[1,2-a]pyrimidine-6-carboxamide, trifluoroacetate], the IC50 in data set [1] is less than 500 nM. In addition, the Ki at MASP-2 (CCP1-CCP2-SP) was less than 500 nM; at human a-thrombin, more than 25000 nM.

With `Cc1cc(F)ccc1CNc1cnc2n(c1=O)[C@H](C(=O)NCc1ccc(N)nc1C)CC2` [Compound 62], the IC50 in data set [1] is less than 500 nM. Also, the Ki at MASP-2 (CCP1-CCP2-SP) is less than 500 nM; at human a-thrombin, 2500 to 10000 nM.

Regarding `Cc1nc(N)ccc1CNC(=O)[C@@H]1CCc2ncc(NCc3ccc(-n4cccn4)cc3)c(=O)n21` [Compound 44, (S)-3-((4-(1H-pyrazol-1-yl)benzyl)amino)-N-((6-amino-2-methylpyridin-3-yl)methyl)-4-oxo-4,6,7,8-tetrahydropyrrolo[1,2-a]pyrimidine-6-carboxamide, trifluoroacetate], in data set [1], the IC50 was less than 500 nM. Moreover, the Ki on MASP-2 (CCP1-CCP2-SP) is less than 500 nM; at human a-thrombin, 10000 to 25000 nM.

The compound `Cc1ccc(F)c(CNc2cnc3n(c2=O)[C@H](C(=O)N[C@@H]2CCc4nc(N)ccc42)CC3)c1` [Compound 95] yielded an IC50 in data set [1] of less than 500 nM. The results for the Ki on MASP-2 (CCP1-CCP2-SP) and at human a-thrombin were less than 500 nM and 500 to 2500 nM, respectively.

As for `Cc1cc(C)cc(CNc2cnc3n(c2=O)[C@H](C(=O)N[C@H](C)c2cc4c(s2)CNC4)CC3)c1` [Compound 106], the IC50 in data set [1] is less than 500 nM. In addition, the Ki at MASP-2 (CCP1-CCP2-SP) is less than 500 nM; at human a-thrombin, more than 25000 nM.

Compound `COc1ccc(CNc2cnc3n(c2=O)[C@H](C(=O)NCc2ccc(N)nc2C)CC3)cc1F` [Compound 46, (S)-N-((6-amino-2-methylpyridin-3-yl)methyl)-3-((3-fluoro-4-methoxybenzyl)amino)-4-oxo-4,6,7,8-tetrahydropyrrolo[1,2-a]pyrimidine-6-carboxamide, di-trifluoroacetate] came in with a 50% inhibitory concentration (IC50) in data set [1] of less than 500 nM. The values for the Ki on MASP-2 (CCP1-CCP2-SP) and at human a-thrombin were less than 500 nM and 500 to 2500 nM, respectively.

Regarding `Nc1ccc2c(n1)CC[C@H]2NC(=O)[C@@H]1CCc2ncc(NCc3cccc(C(F)(F)F)c3)c(=O)n21` [Compound 105], the IC50 in data set [1] is less than 500 nM. Further, the results for the inhibition constant (Ki) at MASP-2 (CCP1-CCP2-SP) and at human a-thrombin were less than 500 nM and 2500 to 10000 nM, respectively.

In data set [1], `Cc1nc(N)ccc1CNC(=O)[C@@H]1CCc2ncc(NCc3cccc(F)c3)c(=O)n21` [Compound 53, (S)—N-((6-amino-2-methylpyridin-3-yl)methyl)-3-((3-fluorobenzyl)amino)-4-oxo-4,6,7,8-tetrahydropyrrolo[1,2-a]pyrimidine-6-carboxamide] displayed an IC50 of less than 500 nM. In addition, the inhibition constant Ki at MASP-2 (CCP1-CCP2-SP) is less than 500 nM; on human a-thrombin, 500 to 2500 nM.

Turning to `CS(=O)(=O)c1cccc(CNc2cnc3n(c2=O)[C@H](C(=O)N[C@@H]2CCc4nc(N)ccc42)CC3)c1` [Compound 97], the IC50 in data set [1] was less than 500 nM. The Ki at MASP-2 (CCP1-CCP2-SP) is less than 500 nM; at human a-thrombin, 500 to 2500 nM.

As for `COc1cc(Cl)cc(CNc2cnc3n(c2=O)[C@H](C(=O)N[C@H](C)c2ccc(N)nc2)CC3)c1` [Compound 76, (S)-N-((R)-1-(6-aminopyridin-3-yl)ethyl)-3-((3-chloro-5-methoxybenzyl)amino)-4-oxo-4,6,7,8-tetrahydropyrrolo[1,2-a]pyrimidine-6-carboxamide], the IC50 in data set [1] was less than 500 nM. Also, the Ki is less than 500 nM on MASP-2 (CCP1-CCP2-SP) and 10000 to 25000 nM at human a-thrombin.

For narsoplimab, the “effect on HSCT-TMA plasma-mediated endothelial damage” value in data set [2] is “reduce HSCT-TMA plasma-mediated endothelial damage”. For the same compound, the “response rate based on improvement in laboratory TMA markers and clinical benefit” value with HSCT-TMA is recorded as 61%. Further, in the data set with severe IgA nephropathy (human, in vivo), the tolerability entry was “well tolerated”. The “urine protein excretion decrease from baseline” value in the data set with severe IgA nephropathy (once-weekly treatment, after 3 years of follow-up) is recorded as 38%. The “annualized rate of kidney function decline” value with severe IgA nephropathy (once-weekly treatment, after 3 years of follow-up, matched external comparator group 8.6) is given as 5.2 mL/min/yr.

As for `Cc1ccc(C)c(CNc2cnc3n(c2=O)[C@H](C(=O)N[C@@H]2CCc4nc(N)ccc42)CC3)c1` [Compound 94], the IC50 in data set [1] is less than 500 nM. Moreover, the Ki at MASP-2 (CCP1-CCP2-SP) is less than 500 nM; on human a-thrombin, 500 to 2500 nM.

`Cc1ccc(CNc2cnc3n(c2=O)[C@H](C(=O)NCc2ccc(N)nc2C)CC3)cc1C` [Compound 72, (S)-N-((6-amino-2-methylpyridin-3-yl)methyl)-3-((3,4-dimethylbenzyl)amino)-4-oxo-4,6,7,8-tetrahydropyrrolo[1,2-a]pyrimidine-6-carboxamide] yielded an IC50 in data set [1] of less than 500 nM. The inhibition constant (Ki) on MASP-2 (CCP1-CCP2-SP) was less than 500 nM; on human a-thrombin, 500 to 2500 nM.

On to `Cc1cc(C)cc(CNc2cnc3n(c2=O)[C@H](C(=O)N[C@H](C)c2ccc(N)nc2C)CC3)c1` [Compound 64, (S)-N-((R)-1-(6-amino-2-methylpyridin-3-yl)ethyl)-3-((3,5-dimethylbenzyl)amino)-4-oxo-4,6,7,8-tetrahydropyrrolo[1,2-a]pyrimidine-6-carboxamide], for which the IC50 in data set [1] is less than 500 nM. Further, the results for the Ki on MASP-2 (CCP1-CCP2-SP) and on human a-thrombin were less than 500 nM and 10000 to 25000 nM, respectively.

On to `Cc1ccc(F)c(CNc2cnc3n(c2=O)[C@H](C(=O)NCc2cc4c(s2)CNC4)CC3)c1` [Compound 50, (S)—N-((5,6-dihydro-4H-thieno[2,3-C]pyrrol-2-yl)methyl)-3-((2-fluoro-5-methylbenzyl)amino)-4-oxo-4,6,7,8-tetrahydropyrrolo[1,2-a]pyrimidine-6-carboxamide, di-trifluoroacetate], for which, in data set [1], the 50% inhibitory concentration (IC50) was less than 500 nM. Moreover, the Ki on MASP-2 (CCP1-CCP2-SP) is less than 500 nM; at human a-thrombin, 2500 to 10000 nM.

`Nc1ccc2c(n1)CC[C@H]2NC(=O)[C@@H]1CCc2ncc(NCc3ccc4c(c3)COC4)c(=O)n21` [Compound 100] came in with an IC50 in data set [1] of less than 500 nM. Besides, the values for the Ki at MASP-2 (CCP1-CCP2-SP) and at human a-thrombin were less than 500 nM and 2500 to 10000 nM, respectively.
